Read-outs that look alike come from different tables or passages of the source.
Key:
CYP3A = conditions: cited from earlier work
[1] = Human ADME study: quantitative metabolite profiling in plasma; assay type: in vivo
Method: A plasma pool across the six healthy volunteers included in the study was prepared at the time points of 1 hour, 3 hours, 24 hours, and 48 hours post dose. For each time point, an equal volume of plasma was taken from each subject and combined. Plasma pool samples were processed by protein precipitation with acetonitrile. The protein pellet that resulted from precipitation with acetonitrile was washed further with additional aliquots of acetonitrile. All acetonitrile washes were combined and evaporated under nitrogen. For the 3‐ and 24‐hour plasma pools, the extraction procedure was slightly modified, including precipitation of the plasma proteins by addition of a 1:1 mixture of acetonitrile:methanol, followed by washing of the protein pellet with the same solvent mixture. All extracts were reconstituted with a solution of 15‐mM ammonium formate and acetonitrile (95:5 v/v). Extraction and reconstitution recoveries were measured in all four plasma samples in order to calculate and overall recovery. Quantitative metabolite profiling in plasma was accomplished using a Shimadzu Prominence high‐performance liquid chromatography (HPLC) system (Shimadzu, Columbia, MD, USA), coupled with fraction collection and analysis of total radioactivity in individual fractions using AMS (as described above). A second injection of each sample, conducted immediately after the first, was used to provide HPLC fractions for metabolite identification. The fractions identified as containing radioactivity from the AMS analysis were analyzed by HPLC coupled with high‐resolution mass spectrometry to identify the metabolites. The HPLC‐MS/MS methodology used is described below.

[2] = Dog ADME study: excretion, mass balance, metabolite profiling with radiolabeled ribociclib; assay type: in vivo
Method: (§1) ADME studies (including QWBA in pigmented and non‐pigmented rats) using radiolabeled ribociclib were conducted in rat and dog. Relevant institutional and national guides for the care and use of laboratory animals were followed.
(§2) Metabolite profiling was conducted on plasma, urine, bile, and feces samples in the rat and dog ADME studies, and further metabolite profiling on plasma and milk was conducted in a dedicated rat milk excretion study.
(§3) Plasma samples obtained from these studies were extracted with equal volumes of acetonitrile. Additional extractions of the protein pellet with acetonitrile and/or acetone were conducted as needed to maximize radioactivity recovery. Feces samples were initially extracted with two to four volumes of acetonitrile. Additional extractions of the pellet following centrifugation and removal of supernatant were conducted with acetonitrile and/or acetone as needed to maximize radioactivity recovery. Urine and bile samples were analyzed directly following centrifugation. Radioactivity recoveries following the centrifugation step were measured by LSC. Milk samples were extracted with two volumes of acetonitrile, following centrifugation and removal of supernatant, the pellets were re‐suspended in 100 µL of water and re‐extracted with 200 µL acetonitrile.
(§4) Metabolite profiling in the ADME studies was conducted using liquid chromatography‐mass spectrometry. Radioactivity profiles were generated by diversion of the majority of the post‐column flow into 96‐well yttrium silicate scintillation‐coated plates (Deepwell Lumaplates; Perkin Elmer Life and Analytical Sciences Inc), by means of Gilson FC204 fraction collectors (Gilson). Metabolites were identified by mass spectrometry (Waters QTOF operating under MassLynx 4.1) and, where feasible, by comparison with authentic reference standards.

[3] = Human ADME study: PK of ribociclib and LEQ803 in plasma and urine (validated bioanalytical assay); assay type: in vivo; conditions: human plasma, bioanalytical assay, single oral 600 mg, N=6; for AUC(0-inf) / AUC(0-t) / Cmax / half-life: human, plasma, po, 600 mg
Method: Subjects continued to fast for 4 hours after drug administration.
Plasma aliquots at each time point were subjected to protein precipitation with three volumes of acetonitrile containing 0.1% (v:v) formic acid, followed by dilution and analysis by liquid chromatography‐tandem mass spectrometry in selected reaction monitor‐positive ion mode using heated electrospray ionization as the ionization technique. For urine aliquots, six volumes of acetonitrile containing 0.1% (v:v) formic acid were added, followed by dilution and analysis in the same way as for plasma. Components were separated using a YMC‐Triart C18 (2.0 x 30 mm, 1.9 µm) column (YMC Co. Ltd.). […] Mobile phase A was 0.1% formic acid in H2O while mobile phase B was 0.1% formic acid in ACN:Isopropanol 8:2 v:v.

[4] = Rat ADME study: excretion, mass balance, metabolite profiling with radiolabeled ribociclib; assay type: in vivo; conditions: rat
Method: as §1, §2, §3, §4

[5] = Human ADME study: quantitative metabolite profiling in urine and feces; assay type: in vivo; conditions: pooled excreta n=6, from metabolite patterns (radio profiling)
Method: Average pools across the six subjects were also created by combining equal percentages (of total urine and feces excreted over the time interval) of the individual subject pools. Urine pools were analyzed directly for metabolite profiling (column recovery of a representative sample was measured), whereas feces pools were subjected to extraction. Specifically, to each aliquot of feces homogenate, two volumes of acetonitrile were added. After centrifugation, the pellet was washed further with an additional two volumes of acetonitrile. […] All washes were combined, evaporated under nitrogen, and reconstituted with a solution of 15‐mM ammonium formate (pH 3.5). This feces extract reconstitute was analyzed for metabolite profiling. Combined extraction and reconstitution (overall recovery) and column recovery were measured. […] The HPLC column used was a Phenomenex Kinetex, C18, 250 × 4.6 mm, equipped with a pre‐column of the same type (2.1 × 4.6 mm), which was placed in a column oven at 40°C. […] The HPLC gradient was as follows: initial conditions were 5% mobile phase B for 1 minute, then increased to 20% at 10 minutes post injection where it was held (isocratic) up to 20 minutes. […] The post column flow was directed to the fraction collector operated in a time‐slice mode and containing 96‐well Lumaplates (Perkin Elmer). The plates were dried at room temperature and the radioactivity was measured using a microplate scintillation counter model TopCount NXT (Perkin Elmer) instrument (up to 3 × 100‐minute counting time). […] Metabolites were identified during the same injections using data generated by the high‐resolution mass spectrometer. The molecular ions and key fragments of each drug‐related component were determined. Key fragments for each metabolite were derived from their product ion mass spectra and were used to determine the metabolite structures. Where possible, structural assignments were supported by exact mass measurement, comparison with synthetic standards and/or Hydrogen/Deuterium (H/D) exchange LC‐MS(/MS).

[6] = Contribution of metabolites to total pharmacological activity in human; conditions: considering in vitro measurements and in vivo exposure
CYP2D6 = conditions: ref literature search, read-out: Reported Ki or IC50 values, median (and range); cited from earlier work
CYP2C9 = conditions: cited from earlier work
[7] = tested on: CYP enzymes that metabolise ribociclib in HLM (total metabolism; CYP-selective chemical inhibitors); experiment: Inhibition of [3H] ribociclib total metabolism in HLM by CYP- and FMO-selective inhibitors; assay type: in vitro ADME; conditions: both, human, human liver microsomes, pH 7.4, probe [3H] ribociclib
CYP1A2 = conditions: ref literature search, read-out: Reported Ki or IC50 values, median (and range); cited from earlier work
FMO = molecular target: FMO; set-up: method as in Zhou et al (2002); conditions: ref Zhou et al (2002), read-out: Reported Ki or IC50 values; cited from earlier work
[8] = substrate: CN(C)C(=O)c1cc2cnc(Nc3ccc(N4CCNCC4)cn3)nc2n1C1CCCC1; experiment: Enzyme kinetics with recombinant CYP2J2 and scaling to HLM; assay type: in vitro ADME, human; conditions: other: recombinant CYP2J2; 37.0 °C
Method: In vitro incubations were carried out in 100‐mM potassium phosphate buffer (pH 7.4) and 5‐mM MgCl2 with a total volume of 200 µL. Substrate and either human liver microsomes (HLM, BD Biosciences, mixed gender pool of n = 50) or recombinant human enzymes (BD Biosciences) were added and pre‐incubated for 3 minutes at 37°C. The reaction was started by addition of a fresh solution of NADPH (1 mmol/L final concentration). The samples were incubated at 37°C with agitation of 500 rpm. For incubations with CYP2A6, CYP2C9, CYP2C18, and CYP4A11, the phosphate buffer was replaced by TRIS buffer (100 mmol/L, pH 7.4) and for flavin‐containing monooxygenases (FMOs), a glycine buffer (50 mM, pH 9.5) was used.
The enzymatic reaction was stopped and the protein was precipitated by addition of an equal volume of methanol. After 30 min at −80°C, the samples were centrifuged at 30'000 x g for 15 min. The supernatant was withdrawn. Aliquots were analyzed by LSC and the supernatant was diluted with water to obtain a final solution containing less than 20% of the organic solvent. For samples of low substrate concentration, supernatants were evaporated to dryness under nitrogen, then re‐suspended in water containing less than 20% of methanol. Samples were analyzed by HPLC combined with radiodetection. […]

For `CC(=O)N1CCN(c2ccc(OCC3COC(Cn4ccnc4)(c4ccc(Cl)cc4Cl)O3)cc2)CC1` (stereo not drawn) [Ketoconazole], the Ki (CYP3A) is listed as […] and the “Reported Ki or IC50 values” (CYP3A) is listed as […].

For `CNC(=O)c1cc2cnc(Nc3ccc(N4CCNCC4)cn3)nc2n1C1CCCC1` [M4 (LEQ803)], the “ratio of AUC0-48 by validated bioanalytical assay to AUC0-48 from metabolite patterns” value ([1]; human plasma) was 0.813, the “AUC0-48h, % of total [14C]-AUC0-48” value ([1]; human plasma pools n=6, from metabolite patterns) was 8.60% and the “metabolite exposure as % of ribociclib exposure” value ([1]; human plasma, AUC0-48) was 19.8%. For the same molecule, the “metabolite as % of plasma exposure to ribociclib” value [2] was 3%, the “tlast, median (range)” value [3] was 252 (240‐312) h and the Tmax ([3]; read-out: tmax, median (range)) was 2.5 h. The AUC(0-inf) ([3]; read-out: AUCinf, arithmetic mean (CV %)) was 2320 ng·h/mL, the AUC(0-inf) ([3]; read-out: AUCinf, median) was 2390 ng·h/mL and the AUC(0-t) ([3]; read-out: AUClast, arithmetic mean (CV %)) was 2160 ng·h/mL. The AUC(0-t) ([3]; read-out: AUClast, median) was 2240 ng·h/mL, the Cmax ([3]; read-out: Cmax, arithmetic mean (CV %)) was 67.6 ng/mL and the Cmax ([3]; read-out: Cmax, median) was 59 ng/mL. For the same molecule, the half-life ([3]; read-out: t½, arithmetic mean (CV %) (converted)) was 91.8 h, the half-life ([3]; read-out: t½, median (converted)) was 78.2 h and the “metabolite as % of plasma exposure to ribociclib” value [4] was 38%. For the same molecule, the “Excretion (% of dose), Feces” value [5] was 13.9 % of dose, the “Excretion (% of dose), Urine” value [5] was 3.74 % of dose and the “Excretion (% of dose), Feces” value ([5]; listed as M4) was “approximately 13.9 % of dose”. For the same molecule, the “Excretion (% of dose), Urine” value ([5]; listed as M4) was “approximately 3.74 % of dose” and the “contribution to total pharmacological activity in human” value [6] was “not to have a relevant contribution to total pharmacological activity”.

For `C=C[C@H]1C[N@@]2CC[C@H]1C[C@@H]2[C@@H](O)c1ccnc2ccc(OC)cc12` [Quinidine], the Ki (CYP2D6) is given as […].

In the case of `Nc1ccc(S(=O)(=O)Nc2ccnn2-c2ccccc2)cc1` [Sulfaphenazole], the Ki (CYP2C9; read-out: Reported Ki or IC50 values, median (and range), ref literature search) is listed as […], the Ki (CYP2C9; read-out: Reported Ki or IC50 values, ref Food and Drug Administration (2006)) is listed as […] and the IC50 [7] is listed as greater than 5000 nM.

For `Cc1nc2c([nH]1)c(=O)n(C)c(=O)n2Cc1ccco1` [Furafylline], the Ki (CYP1A2) is given as […] and the IC50 [7] is given as greater than 10000 nM.

For `Cn1cc[nH]c1=S` [Methimazole], the Ki (FMO) is given as 61000 nM.

B1: CYP2J2 (Homo sapiens) (protein)
chain: MLAAMGSLAAALWAVVHPRTLLLGTVAFLLAADFLKRRRPKNYPPGPWRLPFLGNFFLVDFEQSHLEVQLFVKKYGNLFSLELGDISAVLITGLPLIKEALIHMDQNFGNRPVTPMREHIFKKNGLIMSSGQAWKEQRRFTLTALRNFGLGKKSLEERIQEEAQHLTEAIKEENGQPFDPHFKINNAVSNIICSITFGERFEYQDSWFQQLLKLLDEVTYLEASKTCQLYNVFPWIMKFLPGPHQTLFSNWKKLKLFVSHMIDKHRKDWNPAETRDFIDAYLKEMSKHTGNPTSSFHEENLICSTLDLFFAGTETTSTTLRWALLYMALYPEIQEKVQAEIDRVIGQGQQPSTAARESMPYTNAVIHEVQRMGNIIPLNVPREVTVDTTLAGYHLPKGTMILTNLTALHRDPTEWATPDTFNPDHFLENGQFKKREAFMPFSIGKRACLGEQLARTELFIFFTSLMQKFTFRPPNNEKLSLKFRMGITISPVSHRLCAVPQV
notes: purchased BD Biosciences
For B1, the Km [8] was 11.8 µM.

— paper PMC7287031 (Pharmacology Research & Perspectives, 2020)
